Test [1] in a line: Cytotoxicity against mitoxantrone resistant […] cells expressing BCRP after 15 mins by fluorescence assay. The format is functional, cell-based. The note with it: Canis lupus familiaris, MDCK2, 0.25 h.
The next test deals with SK-OV-3. Nature of the test: Cytotoxicity against human SKOV3 Cells after 48 hrs by Cell Titer Blue assay. The format is functional, cell-based. The following applies: SK-OV-3, 48 h. (In general: Resazurin is reduced to fluorescent resorufin, in cell work by metabolically active cells.)
In a further test the test system is SW-620. Nature of the test: Cytotoxicity against human SW620 Cells. The format is functional, cell-based.
In another test the test system is PC-3. In words: Anticancer activity against human PC3 cells. In kind it is functional, cell-based.
Another test deals with DU-145. In words: Anticancer activity against human DU145 cells. In kind it is functional, cell-based.
Another test has as its system SGC-7901. In words: Antiproliferative activity against human SGC7901 cells after 24 hrs by MTT assay. The note with it: SGC-7901, 24 h. In kind it is functional, cell-based. (In general: Tetrazolium assays rely on reduction of a dye to a coloured formazan, in cell work by metabolically active cells.)
The subject of another test is BGC-823. Nature of the test: Antiproliferative activity against human BGC823 cells after 24 hrs by MTT assay. The format is functional, cell-based. The following applies: BGC-823, 24 h.
A further test has as its system MGC-803. In words: Antiproliferative activity against human MGC803 cells after 24 hrs by MTT assay. The following applies: MGC-803, 24 h. The format is functional, cell-based.
In the next test the test system is CT26. Nature of the test: Cytotoxicity against mouse CT26 cells. The format is functional, cell-based.
Test [2] deals with HCT-116. In words: Cytotoxicity against human HCT116 Cells. The format is functional, cell-based.
A further test has as its system HEp-2. Nature of the test: Cytotoxicity against human Hep2 Cells. The format is functional, cell-based.
The next test deals with L02. In words: Cytotoxicity against human HL-7702 cells. In kind it is functional, cell-based.
For test [3], the system named is MCF7. Nature of the test: Cytotoxicity against human MCF7 Cells after 48 hrs by MTS assay. In kind it is functional, cell-based. The note with it: MCF7, 48 h.
A short description of test [4]: Cytotoxicity against human CCD-1059SK Cells after 48 hrs by MTS assay. The format is functional.
Test [5] has as its system A549. Nature of the test: Cytotoxicity against human A549 Cells by MTT assay. In kind it is functional, cell-based.
The next test has as its system AGS. Nature of the test: Cytotoxicity against human AGS Cells by MTT assay. In kind it is functional, cell-based.
In test [6] the test system is MCF7. In words: Induction of apoptosis in human MCF7 cells. The format is functional, cell-based.
The subject of the next test is SW480. In words: Cytotoxicity against human SW480 Cells after 24 to 48 hrs by MTT assay. In kind it is functional, cell-based.
Another test deals with K562. In words: Cytotoxicity against human K562 Cells after 24 to 48 hrs by MTT assay. In kind it is functional, cell-based.
The test system of test [7] is A549. In words: Cytotoxicity against human A549 Cells after 24 to 48 hrs by MTT assay. In kind it is functional, cell-based.
In another test the test system is Caco-2. Nature of the test: Cytotoxicity against human Caco2 Cells after 72 hrs by MTT assay. In kind it is functional, cell-based. The following applies: Caco-2, 72 h.
The next test concerns EA.hy 926. In words: Cytotoxicity against human EAhy926 Cells after 72 hrs by MTT assay. In kind it is functional, cell-based. The note with it: EA.hy 926, 72 h.
The next test relates to HT-29. Nature of the test: Cytotoxicity against human HT-29 Cells after 72 hrs by MTT assay. The format is functional, cell-based. The following applies: HT-29, 72 h.
The subject of test [8] is HepG2. Nature of the test: Cytotoxicity against human HepG2 Cells after 72 hrs by MTT assay. In kind it is functional, cell-based. The following applies: HepG2, 72 h.
The next test concerns CHO-K1. In words: Cytotoxicity against […] Cells after 72 hrs by MTT assay. In kind it is functional, cell-based. The note with it: Cricetulus griseus, CHO-K1, 72 h.
The nature of test [9]: Cytotoxicity against human GBM6 Cells 48 hrs by MTS assay. The format is functional. The note with it: GBM6, 48 h.
A further test has as its system U373 MG. In words: Cytotoxicity against human U373MG Cells 48 hrs by MTS assay. In kind it is functional, cell-based, U-373MG ATCC.
In the next test the test system is U-87 MG. Nature of the test: Cytotoxicity against human U87MG Cells 48 hrs by MTS assay. In kind it is functional, cell-based, U-87MG ATCC.
Another test deals with U-251. In words: Cytotoxicity against human U251MG cells after 48 hrs by MTS assay. The format is functional, cell-based. The note with it: U-251, 48 h.
Test [10] in a line: Cytotoxicity against human GBM5 Cells 48 hrs by MTS assay. In kind it is functional.
Test [11] can be described thus: Cytotoxicity against human GBM3 Cells 48 hrs by MTS assay. The format is functional. The note with it: GBM3, 48 h.
The nature of test [12]: Cytotoxicity against human GBM4 Cells 48 hrs by MTS assay. The format is functional.
Test [13] can be described thus: Cytotoxicity against human GBM2 Cells 48 hrs by MTS assay. The format is functional. The note with it: GBM2, 48 h.
The nature of test [14]: Cytotoxicity against human GBM1 Cells 48 hrs by MTS assay. The format is functional. The note with it: GBM1, 48 h.
The subject of another test is HL-60. In words: Cytotoxicity against human HL60 cells. In kind it is functional, cell-based.
For another test, the system named is HSC-2. In words: Cytotoxicity against human HSC2 cells. In kind it is functional, cell-based.
The next test deals with HSC-3. Nature of the test: Cytotoxicity against human HSC3 cells. In kind it is functional, cell-based.
Another test relates to HSC-4. Nature of the test: Cytotoxicity against human HSC4 cells. The format is functional, cell-based.
Test [15] relates to MCF7. In words: Cytotoxicity against human MCF7 Cells after 48 hrs by MTT assay. The format is functional, cell-based. The following applies: MCF7, 48 h.
For test [16], the system named is HepG2. Nature of the test: Cytotoxicity against human HepG2 Cells after 48 hrs by MTT assay. In kind it is functional, cell-based. The following applies: HepG2, 48 h.
Test [17] can be described thus: Cytotoxicity against human LX2 Cells after 48 hrs by MTT assay. The format is functional. The note with it: LX-2, 48 h.
The test system of a further test is NIH3T3. In words: Cytotoxicity against mouse 3T3 Cells after 48 hrs by MTT assay. In kind it is functional, cell-based. The note with it: NIH3T3, 48 h.
Another test relates to HeLa. Nature of the test: Anticancer activity against human HeLa cells. In kind it is functional, cell-based.
For test [18], the system named is HCT-116. Nature of the test: Antitumor activity against human HCT116 cells after 72 hrs by FMCA method. The format is functional, cell-based. The following applies: HCT-116, 72 h, pooled result: one value given for 5 cell lines, strains, targets or settings.

The text below walks through data of ChEMBL document CHEMBL4364241, “Developments in the anticancer activity of structurally modified curcumin: An up-to-date review” (Eur J Med Chem, 2019).

The term IC50 denotes the concentration at which inhibition is half-maximal. Lower therefore signals greater potency. As for `COc1cc(/C=C2\CNC/C(=C\c3ccc(O)c(OC)c3)C2=O)ccc1O`, half-maximal inhibition in [1] (IC50) required 4.3 µM.
In the test on SK-OV-3, `COc1ccc(/C=C/C(=O)/C=C(O)/C=C/c2ccc(OC)c(OC)c2)cc1OC` had a half-inhibitory concentration (IC50) of 3.51 µM.
Turning to `COc1ccc(/C=C/C(=O)/C=C(O)/C=C/c2ccc(OC)c(O)c2)cc1O`, in the test with SK-OV-3, the midpoint of inhibition, the IC50, lay at 5.58 µM.
With `COc1ccc(OC)c(/C=C2\CNC/C(=C\c3cc(OC)ccc3OC)C2=O)c1`, in test [1], the 50% inhibitory concentration (IC50) was determined as 1.2 µM.
For `COc1cc(/C=C/C(=O)/C=C/c2ccccc2[N+](=O)[O-])ccc1O`, the IC50 in the test on SW-620 was 2.8 µM; with PC-3, 3.5 µM; in the test with DU-145, 3.7 µM; with SGC-7901, 4.3 µM; with BGC-823, 3.3 µM; with MGC-803, 2.7 µM. The values for the half-inhibitory concentration (IC50) in the test on CT26 and with HCT-116 [2] were 1.6 µM and 2.2 µM, respectively.
Consider `CCN1C/C(=C\c2cc(OC)c(OC)c(OC)c2)C(=O)/C(=C/c2cc(OC)c(OC)c(OC)c2)C1`, for which the IC50 in the test with HEp-2 was 16.6 µM; with L02, 46.8 µM.
On to `COc1ccc(/C=N/NC(=O)/C=C/c2ccc(O)c(OC)c2)cc1`, for which the values for the half-inhibitory concentration (IC50) (with MCF7 [3]; in test [4]) were 40.5 µM and 158 µM, respectively.
Consider `COc1ccc(/C=C/C(=O)/C(CNc2ccc(S(N)(=O)=O)cc2)=C(O)/C=C/c2ccc(OC)cc2)cc1`, for which the IC50 in the test on A549 [5] is 6.25 µM; in the test with AGS, 11.9 µM.
In turn, `COc1cc(/C=C/C(=O)C(=CC2CCN(C(=O)OC(C)(C)C)CC2)C(=O)/C=C/c2ccc(O)c(OC)c2)ccc1O` registered an IC50 in the test on MCF7 [6] of 1.5 µM.
`O=C(/C=C/c1c[nH]c2ccccc12)CC(=O)/C=C/c1c[nH]c2ccccc12`: the concentration for half-maximal inhibition (IC50) with SW480 was 7 to 9 µM; in the test on K562 it was 32 to 34 µM; in the test on A549 [7], 25 to 27 µM.
As for `O=C(/C=C(O)/C=C/c1c[nH]c2ccccc12)/C=C/c1c[nH]c2ccccc12`, the IC50 in the test with Caco-2 is 3.3 µM; with EA.hy 926 it was 11.7 µM; in the test on HT-29, 11.5 µM; in the test on HepG2 [8], 10 µM; with CHO-K1 it was 7.9 µM.
Regarding `C=CC(=O)NC(c1ccccc1)C(C(=O)/C=C/c1cccc(O)c1)C(=O)/C=C/c1cccc(O)c1` (configuration not stated), the half-inhibitory concentration (IC50) was 2.32 µM in test [9]; over 5 µM in the test on U373 MG; 0.38 µM with U-87 MG; 0.33 µM in the test on U-251; 0.92 µM in [10]; 1.45 µM in test [11]. The half-maximal inhibitory concentration (IC50) was 1.26 µM in test [12], 1.43 µM in [13] and 0.87 µM in [14].
In the case of `CN1CCC(Cc2ccc(/C=C/C(=O)/C=C/c3ccc(CN4CCN(C)CC4)c(O)c3)cc2O)CC1`, the IC50 stood at 1.8 µM in the test on HL-60, 3.9 µM with HSC-2, 3 µM in the test on HSC-3 and 3 µM in the test on HSC-4.
Turning to `COc1ccc(/C=C/C(=O)Oc2ccc(/C=C/C(=O)CC(=O)/C=C/c3ccc(OC(=O)/C=C/c4ccc(OC)c(O)c4)c(OC)c3)cc2OC)cc1O`, the IC50 came to 0.51 µM in the test on MCF7 [15], 0.58 µM with HepG2 [16], 0.63 µM in [17] and 0.79 µM in the test with NIH3T3.
In the test on HeLa, `O=C(/C=C(O)/C=C/c1ccc(OCC(=O)NCC(=O)O)cc1)/C=C/c1ccc(OCC(=O)NCC(=O)O)cc1` returned a half-maximal inhibitory concentration (IC50) of 0.5 µM.
On the same count and under the same terms, in the case of `COc1cc(/C=C/C(=O)/C=C(O)/C=C/c2ccc(OCC(=O)NCC(=O)O)c(OC)c2)ccc1OCC(=O)NCC(=O)O` it was 0.5 µM.
Compound `CCCOc1ccc(/C=C2\CN(C(=S)c3ccccc3)C/C(=C\c3ccc(OCCC)c(OC)c3)C2=O)cc1OC` registered an IC50 in the test with HCT-116 [18] of 0.207 µM.
For the compound `O=C(/C=C(O)/C=C/c1cccnc1)/C=C/c1cccnc1`, the IC50 worked out at 6.9 µM with Caco-2; 7.9 µM in the test on EA.hy 926; 8.2 µM in the test with HT-29; 8.3 µM with HepG2 [8]; 7.2 µM in the test on CHO-K1.
